Activity calls are given as the source filed them. No cut-off for these calls is given here.
Tests used:
[1] = biological target: T1, Mu-type opioid receptor (Homo sapiens, UniProt P35372); assay: Agonist activity at human mu opioid receptor stably transfected in CHO cells by cAMP assay; type: functional, cell-based
[2] = biological target: T1, Mu-type opioid receptor; assay: Agonist activity at human mu opioid receptor stably transfected in CHO cells assessed as maximal response by cAMP assay relative to DAMGO; type: functional, cell-based
[3] = Ratio of drug concentration in brain to plasma of Sprague-Dawley rat at 30 mg/kg, po measured after 1 hr; type: ADME, organism-based
[4] = Drug concentration in Sprague-Dawley rat brain at 30 mg/kg, po and measured after 1 hr; type: ADME, organism-based; settings: read-out: Ct
[5] = test system: Rattus norvegicus; assay: Analgesic activity in Sprague-Dawley rat assessed as increase in withdrawal latency at 0.3 to 10 mg/kg, sc by hot plate assay; type: functional, organism-based; settings: dose 0.3-10 mg/kg, time <= 90.0 min
[6] = Plasma concentration in Sprague-Dawley rat at 30 mg/kg, po and measured after 1 hr; type: ADME, organism-based
[7] = biological target: T1, Mu-type opioid receptor; assay: Antagonist activity at human mu opioid receptor stably transfected in CHO cells assessed as decrease in DAMGO induced receptor activation by cAMP assay; type: functional, cell-based
[8] = biological target: T1, Mu-type opioid receptor; assay: Antagonist activity at human mu opioid receptor stably transfected in CHO cells assessed as maximal inhibition of DAMGO induced receptor activation by cAMP assay relative to naltrexone; type: functional, cell-based; settings: filed as antagonist
[9] = test system: Rattus norvegicus; assay: Analgesic activity in Sprague-Dawley rat assessed as increase in withdrawal latency at 10 mg/kg, sc by hot plate assay; type: functional, organism-based
[10] = test system: Rattus norvegicus; assay: Antianalgesic activity in Sprague-Dawley rat assessed as decrease in (1R,2R)-N-((S)-2-(dimethylamino)-3-(4-hydroxy-2-methylphenyl)propyl)-2-methyl-2-phenylcyclopropane-1-carboxamide induced analgesic effect by measuring withdrawal latency at 10 to 20 mg/kg, sc by hot plate assay; type: functional, organism-based; settings: dose 10-20 mg/kg
[11] = In vivo receptor occupancy at mu opioid receptor in Sprague-Dawley rat brain at 10 mg/kg, sc measured by LC/MS/MS analysis relative to control; type: functional
[12] = test system: Rattus norvegicus; assay: Antianalgesic activity in Sprague-Dawley rat assessed as decrease in (1R,2R)-N-((S)-2-(dimethylamino)-3-(4-hydroxy-2-methylphenyl)propyl)-2-methyl-2-phenylcyclopropane-1-carboxamide induced analgesic effect by measuring withdrawal latency at 10 mg/kg, sc by hot plate assay; type: functional, organism-based

T1 sequence (P35372 whole entry): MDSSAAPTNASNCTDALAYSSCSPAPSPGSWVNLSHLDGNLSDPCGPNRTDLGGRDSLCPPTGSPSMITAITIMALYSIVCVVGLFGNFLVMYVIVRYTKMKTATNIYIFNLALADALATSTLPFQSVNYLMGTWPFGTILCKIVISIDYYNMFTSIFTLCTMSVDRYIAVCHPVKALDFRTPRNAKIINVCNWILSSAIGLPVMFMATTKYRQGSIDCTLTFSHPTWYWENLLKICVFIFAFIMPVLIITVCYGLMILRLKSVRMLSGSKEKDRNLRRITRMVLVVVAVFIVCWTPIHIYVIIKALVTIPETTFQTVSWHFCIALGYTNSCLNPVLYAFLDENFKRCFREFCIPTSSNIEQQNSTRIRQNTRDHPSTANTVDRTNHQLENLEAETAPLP

In the case of C[C@@H](OC(=O)NC[C@H](Cc1ccc(O)cc1)N(C)C)c1ccccc1, the EC50 [1] is reported as 0.062 µM.
In the case of Cc1cc(O)ccc1C[C@@H](CNC(=O)[C@@H]1C[C@@]1(C)c1ccccc1)N(C)C, the Emax ([2]; filed as agonist) is reported as 100% and the EC50 [1] is reported as 0.00033 µM.
Compound CN(C)[C@H](CNC(=O)N[C@H](c1ccccc1)C1CC1)Cc1ccc(O)cc1 has an EC50 [1] of 0.0073 µM.
Compound CN(C)[C@H](CNC(=O)[C@@H]1C[C@@]1(C)c1ccccc1)Cc1ccc(O)cc1 has a BPR [3] of 89%, an Emax ([2]; filed as agonist) of 90% and a concentration at 1 h [4] of 3.3 ng/g. For the same compound, the Activity [5] was “Dose-Dependent Effect”, the concentration at 1 h [6] was 3.7 ng/mL and the EC50 [1] was 0.00087 µM.
CN(C)[C@@H](CNC(=O)N[C@H](c1ccccc1)C1CC1)Cc1ccc(O)cc1 showed an EC50 [1] of 0.346 µM.
With C[C@@H](OC(=O)NC[C@@H](Cc1ccc(O)cc1)N(C)C)c1ccccc1 the EC50 [1] was 0.95 µM.
CN(C)[C@H](CNC(=O)[C@H]1C[C@]1(C)c1ccccc1)Cc1ccc(O)cc1 gave an IC50 [7] of 0.21 µM, an Imax [8] of 100% and an EC50 [1] greater than 3 µM.
C[C@H](OC(=O)NC[C@H](Cc1ccc(O)cc1)N(C)C)c1ccccc1 gave a BPR [3] of 323%, a concentration at 1 h [4] of 481 ng/g and a concentration at 1 h [6] of 149 ng/mL. For the same compound, the EC50 [1] was 0.18 µM.
Compound CN(C)[C@@H](CNC(=O)N[C@@H](c1ccccc1)C1CC1)Cc1ccc(O)cc1 has an EC50 [1] of 0.243 µM.
For CN(C)[C@H](CNC(=O)[C@@H]1C[C@]1(C)c1ccccc1)Cc1ccc(O)cc1, the IC50 [7] was 0.11 µM, the Imax [8] was 100% and the Activity [9] was “inactive”. For the same compound, the Activity [10] was “Active” and the EC50 [1] was greater than 3 µM.
C[C@@H](CC(=O)NC[C@H](Cc1ccc(O)cc1)N(C)C)c1ccccc1 showed a BPR [3] of 85%, an Emax ([2]; filed as agonist) of 68% and a concentration at 1 h [4] of 14.4 ng/g. It also gave a concentration at 1 h [6] of 16.9 ng/mL.
With CN(C)[C@H](CNC(=O)[C@@H]1C[C@]1(C)c1ccccc1)Cc1ccc(O)cc1Cl the Activity [11] was 70%, the IC50 [7] was 0.029 µM and the Activity [12] was “Active”. It also gave an Imax [8] of 100% and an EC50 [1] greater than 3 µM.
In the case of CN(C)[C@H](CNC(=O)[C@H]1C[C@@]1(C)c1ccccc1)Cc1ccc(O)cc1, the IC50 [7] is reported as greater than 3 µM and the EC50 [1] is reported as greater than 3 µM.
With CN(C)[C@H](CNC(=O)N[C@@H](c1ccccc1)C1CC1)Cc1ccc(O)cc1 the EC50 [1] was 0.104 µM.
For Cc1cc(O)cc(C)c1C[C@@H](CNC(=O)[C@@H]1C[C@@]1(C)c1ccccc1)N(C)C, the Activity [9] was “inactive”, the Emax [2] was 27% and the Activity [10] was “Active”. For the same compound, the EC50 [1] was 0.002 µM.
Compound C[C@H](OC(=O)NC[C@@H](Cc1ccc(O)cc1)N(C)C)c1ccccc1 has an EC50 [1] greater than 3 µM.
With C[C@@H](CC(=O)NC[C@H](Cc1c(F)cc(O)cc1F)N(C)C)c1ccccc1 the BPR [3] was 72%, the Emax [2] was 33% and the concentration at 1 h [4] was 3.9 ng/g. It also gave a concentration at 1 h [6] of 5.4 ng/mL.
Work on C[C@H](NC(=O)NC[C@H](Cc1ccc(O)cc1)N(C)C)c1ccccc1 yielded a BPR [3] of 17%, an Emax ([2]; filed as agonist) of 48% and a concentration at 1 h [4] of 33 ng/g. For the same compound, the concentration at 1 h [6] was 190 ng/mL and the EC50 [1] was 0.021 µM.
Work on C[C@H](CC(=O)NC[C@H](Cc1ccc(O)cc1)N(C)C)c1ccccc1 yielded a BPR [3] of 125%, an Emax ([2]; filed as agonist) of 68% and a concentration at 1 h [4] of 29.2 ng/g. For the same compound, the concentration at 1 h [6] was 23.3 ng/mL.
Compound CN(C)[C@H](CNC(=O)O[C@H](c1ccccc1)C1CC1)Cc1ccc(O)cc1 has an Emax [2] of 26% and an EC50 [1] of 0.77 µM.
